Experimental data published in patent US5789412A, “Piperazides derived from arylpiperazine, processes for their preparation, their use as medicaments and pharmaceutical compositions comprising them” (Pierre Fabre Medicament, priority 1994, dated 1998).
Counter-ions that a name gives are not always drawn. Like-named read-outs stand apart in the source and are kept apart here.

What was measured:
human 5HT1Dα receptor = target: T1, human 5HT1Dα receptor (Homo sapiens, UniProt P28221); assay: Binding to human 5HT1Dα receptor ([3H]-5CT displacement)
T1 construct: expressed in transfected cells
T1 sequence (P28221 whole entry): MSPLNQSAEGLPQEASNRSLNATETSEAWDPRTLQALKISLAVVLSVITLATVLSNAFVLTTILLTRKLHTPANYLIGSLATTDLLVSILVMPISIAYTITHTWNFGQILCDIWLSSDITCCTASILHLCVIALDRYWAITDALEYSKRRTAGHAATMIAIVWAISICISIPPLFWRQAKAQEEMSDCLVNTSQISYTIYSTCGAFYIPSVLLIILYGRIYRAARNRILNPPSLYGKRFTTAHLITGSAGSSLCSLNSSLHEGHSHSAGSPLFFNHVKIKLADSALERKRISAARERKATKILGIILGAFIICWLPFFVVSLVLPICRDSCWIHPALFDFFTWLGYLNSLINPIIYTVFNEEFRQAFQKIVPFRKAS
Method: (§1) Human 5HT1Dα and 5HT1Dβ receptors were cloned according to the sequences published by M. Hamblin and M. Metcalf, Mol. Pharmacol., 40, 143 (1991) and Weinshenk et al., Proc. Natl. Acad. Sci. 89, 3630 (1992).
(§2) Transitory transfection and permanent transfection of the genes for these receptors was carried out in cell lines Cos-7 and CHO-K1 using an electroporator.
(§3) The binding of the derivatives of the present invention with the human 5HT1Dα, 5HT1Dβ and 5HT1A receptors was studied according to the method described by P. Pauwels and C. Palmier (Neuropharmacology, 33, 67, 1994).
(§4) The incubation media for these binding measurements comprise 0.4 ml of cell membrane preparation, 0.05 ml of a tritiated ligand [[3H]-5CT (final concentration: 2 nM) for the 5HT1Dα and 5HT1Dβ receptors and [3H]-8OH-DPAT (final concentration: 1 nM) for the 5HT1A receptor] and 0.05 ml of the test molecule (final concentrations of 0.1 nM to 1000 nM) or 10 μM (final concentration) of serotonin (5HT1Dα and 5HT1Dβ) or 1 μM (final concentration) of spiroxatrine (5HT1A).

human 5HT1Dβ receptor [1] = target: T2, human 5HT1Dβ receptor (Homo sapiens, UniProt P28222); assay: Binding to human 5HT1Dβ receptor ([3H]-5CT displacement)
T2 construct: expressed in transfected cells; host or cells: CHO-K1
T2 sequence (P28222 whole entry): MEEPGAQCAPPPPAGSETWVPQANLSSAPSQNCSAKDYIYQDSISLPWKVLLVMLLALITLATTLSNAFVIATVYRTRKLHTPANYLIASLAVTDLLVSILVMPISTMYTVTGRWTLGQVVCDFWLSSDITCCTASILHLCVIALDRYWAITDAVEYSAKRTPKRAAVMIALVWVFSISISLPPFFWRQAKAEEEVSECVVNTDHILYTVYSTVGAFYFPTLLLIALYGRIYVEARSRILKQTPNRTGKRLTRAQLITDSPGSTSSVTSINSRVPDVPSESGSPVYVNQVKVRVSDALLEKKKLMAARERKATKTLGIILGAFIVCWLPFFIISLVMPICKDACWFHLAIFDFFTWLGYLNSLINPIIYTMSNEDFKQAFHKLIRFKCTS
Method: as §1, §2, §3, §4

human 5HT1A receptor = target: T3, human 5HT1A receptor (Homo sapiens, UniProt P08908); assay: Binding to human 5HT1A receptor ([3H]-8OH-DPAT displacement, HeLa HA7 cell line); settings: read-out: 5HT1A Ki (affinity for the receptors concerned)
T3 construct: host or cells: HeLa HA7
T3 sequence (P08908 1-422): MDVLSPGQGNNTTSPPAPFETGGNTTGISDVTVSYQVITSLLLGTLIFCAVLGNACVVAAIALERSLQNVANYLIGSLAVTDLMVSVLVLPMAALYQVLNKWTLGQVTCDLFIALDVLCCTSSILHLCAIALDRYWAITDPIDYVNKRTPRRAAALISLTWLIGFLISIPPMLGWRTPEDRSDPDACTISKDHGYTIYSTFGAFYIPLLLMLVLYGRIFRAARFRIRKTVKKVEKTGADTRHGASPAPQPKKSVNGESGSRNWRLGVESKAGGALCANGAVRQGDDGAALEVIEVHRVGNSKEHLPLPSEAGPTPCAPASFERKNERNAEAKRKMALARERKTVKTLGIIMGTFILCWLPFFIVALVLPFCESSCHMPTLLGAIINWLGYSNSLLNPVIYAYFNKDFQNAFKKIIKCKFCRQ
Source text: The binding of the derivatives of the present invention with the human 5HT1Dα, 5HT1Dβ and 5HT1A receptors was studied according to the method described by P. Pauwels and C.

human 5HT1Dβ receptor [2] = target: T2, human 5HT1Dβ receptor; assay: Inhibition of forskolin-stimulated cyclic AMP formation mediated by human 5HT1Dβ receptor in transfected CHO-K1 cells (intrinsic agonist activity); assay type: cell-based
Method: as §1, §2
Inhibition of the formation of cyclic AMP (stimulated by forskolin) mediated by the human 5HT1Dβ receptor was studied in CHO-K1 cells transfected with the receptor according to the technique described beforehand for the 5HT1B receptor (P. Pauwels and C. Palmier, Neuropharmacology, 33, 67, 1994).
**Intrinsic agonist acitivity (inhibition of the formation of cyclic AMP
induced by forskolin in CHO--K1 cells).

[3] = [3H]-5CT 2 nM, cell membrane preparation, read-out: 5HT1Dα Ki (affinity for the receptors concerned)
[4] = [3H]-5CT 2 nM, cell membrane preparation, read-out: 5HT1Dβ Ki (affinity for the receptors concerned)
[5] = [3H]-8OH-DPAT 1 nM, HeLa HA7 cell line
[6] = CHO-K1 cells, forskolin stimulated, read-out: 5HT1Dβ EC50 (intrinsic agonist activity, inhibition of the formation of cyclic AMP induced by forskolin)

Row | Ki (human 5HT1Dα receptor; [3]) [nM] | Ki (human 5HT1Dβ receptor [1]; [4]) [nM] | Ki (human 5HT1A receptor; [5]) [nM] | EC50 (human 5HT1Dβ receptor [2]; [6]) [nM] | SMILES | Ki (human 5HT1A receptor) [nM] | Ki (human 5HT1Dα receptor) [nM] | Ki (human 5HT1Dβ receptor [1]) [nM] | EC50 (human 5HT1Dβ receptor [2]) [nM]
1 | 48 | 2.3 | 396 | > 1000 | COc1ccc(NC(=O)N2CCN(c3ccccc3C)CC2)cc1N1CCN(C)CC1 [Example 1, N-[4-methoxy-3-(4-methylpiperazin-1-yl)phenyl]-4-(o-tolylpiperazin-1-ylamide fumarate] | – | – | – | –
2 | 230 | 8.4 | 1000 | > 1000 | COc1ccc(N2CCN(C(=O)Nc3ccc(OC)c(N4CCN(C)CC4)c3)CC2)cc1 [Example 3, fumarate] | – | – | – | –
3 | 42 | 1.2 | 557 | > 1000 | COc1ccc(NC(=O)N2CCN(c3cccc(C)c3C)CC2)cc1N1CCN(C)CC1 [Example 5, fumarate] | – | – | – | –
4 | 114 | 5 | 457 | > 1000 | COc1ccc(NC(=O)N2CCN(c3ccc([N+](=O)[O-])cc3)CC2)cc1N1CCN(C)CC1 [Example 6, N-[4-[4-Methoxy-3-(4-methylpiperazin-1-yl)phenyl]-4-(p-nitrophenyl)piperazin-1-ylamide fumarate] | – | – | – | –
5 | 140 | 8.2 | 786 | > 1000 | COc1ccc(NC(=O)N2CCN(c3ccc4c(c3)OCO4)CC2)cc1N1CCN(C)CC1 [Example 7, N-[4-Methoxy-3-(4-methylpiperazin-1-yl)phenyl]-4-(3,4-methylenedioxy)phenylpiperazin-1-ylamide difumarate] | – | – | – | –

Second part, the compound before the results:

Row | SMILES | Ki (human 5HT1Dα receptor; [3]) [nM] | Ki (human 5HT1Dβ receptor [1]; [4]) [nM] | Ki (human 5HT1A receptor; [5]) [nM] | EC50 (human 5HT1Dβ receptor [2]; [6]) [nM] | Ki (human 5HT1A receptor) [nM] | Ki (human 5HT1Dα receptor) [nM] | Ki (human 5HT1Dβ receptor [1]) [nM] | EC50 (human 5HT1Dβ receptor [2]) [nM]
6 | COc1ccc(NC(=O)N2CCN(c3ccccc3OC)CC2)cc1N1CCN(C)CC1 [Example 2, N-[4-Methoxy-3-(4-methylpiperazin-1-yl)phenyl]-4-(o-methoxyphenyl)piperazin-1-ylamide fumarate] | 68 | 2 | – | > 1000 | – | – | – | –
7 | COc1ccc(NC(=O)N2CCN(c3ccccc3C#N)CC2)cc1N1CCN(C)CC1 [Example 8, N-[4-Methoxy-3-(4-methylpiperazin-1-yl)phenyl]-4-(o-cyanophenyl)piperazin-1-ylamide fumarate] | 120 | 11.2 | 714 | > 1000 | – | – | – | –
8 | COc1ccc(NCC(=O)N2CCN(c3ccccc3C)CC2)cc1N1CCN(C)CC1 [Example 12, 2-[4-Methoxy-3-(4-methylpiperazin-1-yl)phenylamino]-1-(4-o-tolylpiperazin-1-yl)ethanone fumarate] | 420 | 28 | – | > 1000 | 3000 | – | – | –
9 | Cc1ccccc1N1CCN(C(=O)COc2ccc3cccc(N4CCN(C)CC4)c3c2)CC1 [Example 16, 2-[8-(4-Methylpiperazin-1-yl)naphthalen-2-yloxy]-1-(4-o-tolylpiperazin-1-yl)ethanone] | 0.68 | 0.28 | 50 | > 1000 | – | – | – | –
10 | CN1CCN(c2cccc3ccc(OC(=O)N4CCN(c5ccccc5)CC4)cc23)CC1 [Example 19, 8-(4-Methylpiperazin-1-yl)naphthalen-2-yl 4-phenylpiperazin-1-yloate] | – | – | 16 | – | – | 2.8 | 0.5 | > 1000
